# According to PMC12102759 (Protein Science : A Publication of the Protein Society, 2025):
# Columns and labels:
# [1] = molecular target: NSP9 (Severe acute respiratory syndrome coronavirus 2, UniProt P0DTC1); experiment: biochemical; format: binding, SARS‐CoV‐2
# [2] = molecular target: G3BP1 NTF2 (Homo sapiens, UniProt Q13283); experiment: biochemical; format: binding
# [3] = test system: G3BP1 NFT2; format: binding, human; details: library DMS-BM; bait G3BP1 NFT2; prey CAPRIN1; AQMQGPYNFIQDSM(averaged): mean of the two overlapping peptides over the shared positions
# G3BP1 NTF2, sequence (Q13283 1-139): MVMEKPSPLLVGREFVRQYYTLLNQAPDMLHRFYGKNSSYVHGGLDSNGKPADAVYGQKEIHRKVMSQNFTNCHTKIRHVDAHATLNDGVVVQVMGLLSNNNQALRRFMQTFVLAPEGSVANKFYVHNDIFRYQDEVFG
Substance,"DMS position-specific score (PSSM value) per amino-acid substitution, averaged [3]",other results
Ac-QGAWLGAPEYWEPLLD-NH2 [NOTCH4 P1615Y],–,IC50 [1]: 152 µM; Kd [1]: 51 µM
Ac-QGAWLGIPEPWEPLLD-NH2 [NOTCH4 A1612I],–,IC50 [1]: 149 µM; Kd [1]: 50 µM
Ac-QGAWLGAPVPWEPLLD-NH2 [NOTCH4 E1614V],–,IC50 [1]: 178 µM
Ac-QGVWLGAPEPWEPLLD-NH2 [NOTCH4 A1608V],–,IC50 [1]: 59 µM; Kd [1]: 16 µM
Ac-APRITFGGFSDSTGSY-NH2 [N P20F],–,IC50 [2]: 44 µM; Kd [2]: 14 µM
Ac-APRITFGGPSDSTGSY-NH2 [N wt],–,Kd [2]: 2.3 µM
Ac-AERITFGGPSDSTGSY-NH2 [N P13E],–,IC50 [2]: 22 µM; Kd [2]: 6.8 µM
Ac-APLITFGGPSDSTGSY-NH2 [N R14L],–,IC50 [2]: 11 µM; Kd [2]: 3 µM
Ac-DPRITFGGPSDSTGSY-NH2 [N A12D],–,IC50 [2]: 9.9 µM; Kd [2]: 2.7 µM
Ac-QGAWLDAPEPWEPLLD-NH2 [NOTCH4 G1611D],–,Kd [1]: 160 µM
Ac-QGAWLGAVEPWEPLLD-NH2 [NOTCH4 P1613V],–,IC50 [1]: 105 µM; Kd [1]: 33 µM
Ac-APRITFGGPSDSTGSY-NH2 [N12–26],–,Kd [2]: 2 µM
Ac-APRITFGAPSDSTGSY-NH2 [N G19A],–,IC50 [2]: 5.2 µM; Kd [2]: 1.1 µM
Ac-APRIEFGGPSDSTGSY-NH2 [N12–26 T16E],–,"effect of mutation on affinity, in words [2]: sevenfold loss of affinity; Kd [2]: 16 µM"
Ac-QGAWLGAPEPYEPLLD-NH2 [NOTCH4 W1616Y],–,IC50 [1]: 167 µM; Kd [1]: 57 µM
Ac-QGVWLGAVEPWEPLLD-NH2 [NOTCH4 A1608V P1613V],–,IC50 [1]: 33.4 µM; Kd [1]: 5.9 µM
Ac-APRIEFGGPSDSTGSY-NH2 [N T15E],–,IC50 [2]: 49 µM
Ac-APRITFGGPYDSTGSY-NH2 [N S21Y],–,IC50 [2]: 16 µM; Kd [2]: 4.7 µM
Ac-QGAWLPAPEPWEPLLD-NH2 [NOTCH4 G1611P],–,Kd [1]: 410 µM
AQMQGPYNFIQDSM(averaged) F9K (AQMQGPYNKIQDSM),0,–
AQMQGPYNFIQDSM(averaged) D12S (AQMQGPYNFIQSSM),0.1749,–

Substance,"DMS position-specific score (PSSM value) per amino-acid substitution, averaged [3]",other results
AQMQGPYNFIQDSM(averaged) M14I (AQMQGPYNFIQDSI),0.02696,–
Ac-QGAWLGAPEPWFPLLD-NH2 [NOTCH4 E1617F],–,IC50 [1]: 109 µM; Kd [1]: 35 µM
AQMQGPYNFIQDSM(averaged) S13T (AQMQGPYNFIQDTM),0.05884,–
AQMQGPYNFIQDSM(averaged) D12A (AQMQGPYNFIQASM),0.09226,–
AQMQGPYNFIQDSM(averaged) Q11V (AQMQGPYNFIVDSM),0.06659,–
Ac-QGAWLGAPEPWEPLLD-NH2 [NOTCH4 wt],–,IC50 [1]: 205 µM; Kd [1]: 72 µM
AQMQGPYNFIQDSM(averaged) P6P,0.3942,–
AQMQGPYNFIQDSM(averaged) G5K (AQMQKPYNFIQDSM),0.001793,–
AQMQGPYNFIQDSM(averaged) M14N (AQMQGPYNFIQDSN),0.007055,–
AQMQGPYNFIQDSM(averaged) G5V (AQMQVPYNFIQDSM),0.008337,–
AQMQGPYNFIQDSM(averaged) Y7T (AQMQGPTNFIQDSM),0,–
AQMQGPYNFIQDSM(averaged) S13H (AQMQGPYNFIQDHM),0,–
AQMQGPYNFIQDSM(averaged) A1Q (QQMQGPYNFIQDSM),0.1157,–
AQMQGPYNFIQDSM(averaged) F9R (AQMQGPYNRIQDSM),0,–
AQMQGPYNFIQDSM(averaged) D12Y (AQMQGPYNFIQYSM),0.00358,–
AQMQGPYNFIQDSM(averaged) Y7Q (AQMQGPQNFIQDSM),0.001996,–
AQMQGPYNFIQDSM(averaged) N8R (AQMQGPYRFIQDSM),0.00733,–
AQMQGPYNFIQDSM(averaged) D12W (AQMQGPYNFIQWSM),0,–
AQMQGPYNFIQDSM(averaged) Y7E (AQMQGPENFIQDSM),0.0001172,–
AQMQGPYNFIQDSM(averaged) A1A,0.1937,–
AQMQGPYNFIQDSM(averaged) Q4W (AQMWGPYNFIQDSM),0.01813,–

Substance,"DMS position-specific score (PSSM value) per amino-acid substitution, averaged [3]",other results
AQMQGPYNFIQDSM(averaged) G5L (AQMQLPYNFIQDSM),0.1936,–
AQMQGPYNFIQDSM(averaged) A1E (EQMQGPYNFIQDSM),0.1606,–
AQMQGPYNFIQDSM(averaged) I10F (AQMQGPYNFFQDSM),0.1045,–
AQMQGPYNFIQDSM(averaged) N8E (AQMQGPYEFIQDSM),0.01047,–
AQMQGPYNFIQDSM(averaged) Q11A (AQMQGPYNFIADSM),0.001301,–
Ac-QGSWLGAPEPWEPLLD-NH2 [NOTCH4 A1608S],–,IC50 [1]: 583 µM; Kd [1]: 216 µM
AQMQGPYNFIQDSM(averaged) F9V (AQMQGPYNVIQDSM),0.0005113,–
AQMQGPYNFIQDSM(averaged) Q4H (AQMHGPYNFIQDSM),0.0707,–
AQMQGPYNFIQDSM(averaged) S13G (AQMQGPYNFIQDGM),0.0006715,–
AQMQGPYNFIQDSM(averaged) I10P (AQMQGPYNFPQDSM),0,–
AQMQGPYNFIQDSM(averaged) S13D (AQMQGPYNFIQDDM),0.02096,–
AQMQGPYNFIQDSM(averaged) P6M (AQMQGMYNFIQDSM),0.05352,–
AQMQGPYNFIQDSM(averaged) Q4Q,0.2404,–
AQMQGPYNFIQDSM(averaged) N8V (AQMQGPYVFIQDSM),0.1991,–
AQMQGPYNFIQDSM(averaged) N8M (AQMQGPYMFIQDSM),0.01948,–
AQMQGPYNFIQDSM(averaged) G5Y (AQMQYPYNFIQDSM),0.006993,–
AQMQGPYNFIQDSM(averaged) Y7H (AQMQGPHNFIQDSM),0.0003057,–
AQMQGPYNFIQDSM(averaged) F9D (AQMQGPYNDIQDSM),0.037,–
AQMQGPYNFIQDSM(averaged) Q11K (AQMQGPYNFIKDSM),0.0002863,–
AQMQGPYNFIQDSM(averaged) Q11M (AQMQGPYNFIMDSM),0.0771,–
